Tests used:
Type in all cases: cell-based
[1] = target: T1, human TLR7 (Homo sapiens, UniProt Q9NYK1); test: TLR7 inhibition reporter assay (HEK-Blue SEAP reporter); conditions: HEK-Blue cells overexpressing human TLR7; gardiquimod 7.5 μM; 22 hour incubation
T1 construct: host or cells: HEK-Blue cells
T1 sequence (Q9NYK1 27-1049): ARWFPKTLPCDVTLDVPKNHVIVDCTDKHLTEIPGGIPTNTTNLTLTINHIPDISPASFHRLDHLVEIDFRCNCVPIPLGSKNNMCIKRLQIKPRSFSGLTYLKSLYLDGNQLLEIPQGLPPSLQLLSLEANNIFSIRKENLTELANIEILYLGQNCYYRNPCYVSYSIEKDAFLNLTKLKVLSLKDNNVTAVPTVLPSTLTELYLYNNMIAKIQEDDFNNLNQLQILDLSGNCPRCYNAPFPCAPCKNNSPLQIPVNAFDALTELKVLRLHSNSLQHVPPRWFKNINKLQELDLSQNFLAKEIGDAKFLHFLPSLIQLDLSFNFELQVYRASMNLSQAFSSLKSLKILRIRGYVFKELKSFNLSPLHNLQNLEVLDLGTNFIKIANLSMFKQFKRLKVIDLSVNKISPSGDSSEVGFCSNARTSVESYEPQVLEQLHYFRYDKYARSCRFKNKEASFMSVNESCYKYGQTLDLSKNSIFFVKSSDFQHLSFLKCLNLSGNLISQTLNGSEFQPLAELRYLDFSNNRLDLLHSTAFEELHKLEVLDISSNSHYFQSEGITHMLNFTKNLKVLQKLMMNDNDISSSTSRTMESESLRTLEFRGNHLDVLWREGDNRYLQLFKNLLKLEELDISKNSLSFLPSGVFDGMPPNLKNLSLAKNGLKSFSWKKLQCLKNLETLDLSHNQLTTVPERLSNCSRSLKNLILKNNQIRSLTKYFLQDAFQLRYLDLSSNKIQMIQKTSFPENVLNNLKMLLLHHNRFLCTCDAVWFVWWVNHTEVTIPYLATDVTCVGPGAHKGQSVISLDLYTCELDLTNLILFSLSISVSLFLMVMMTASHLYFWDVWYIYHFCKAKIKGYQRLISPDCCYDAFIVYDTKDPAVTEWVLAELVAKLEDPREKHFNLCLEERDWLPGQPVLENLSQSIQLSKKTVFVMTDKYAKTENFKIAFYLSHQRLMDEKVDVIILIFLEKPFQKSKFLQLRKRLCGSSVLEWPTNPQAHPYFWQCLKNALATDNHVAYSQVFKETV
In short: (§1)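 Human TLR7/8/9 HEK-Blue reporter lines; dose range 0.05 nM–50 μM; 30 min RT preincubation; stimulus gardiquimod 7.5 μM / R848 15.9 μM / ODN2006 5 nM respectively; 22 h, 37 °C; SEAP detected colorimetrically.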

[2] = target: T2, human TLR8 (Homo sapiens, UniProt Q9NR97); test: TLR8 inhibition reporter assay (HEK-Blue SEAP reporter); conditions: HEK-Blue cells overexpressing human TLR8; R848 15.9 μM; 22 hour incubation
T2 construct: host or cells: HEK-Blue cells
T2 sequence (Q9NR97 27-1041): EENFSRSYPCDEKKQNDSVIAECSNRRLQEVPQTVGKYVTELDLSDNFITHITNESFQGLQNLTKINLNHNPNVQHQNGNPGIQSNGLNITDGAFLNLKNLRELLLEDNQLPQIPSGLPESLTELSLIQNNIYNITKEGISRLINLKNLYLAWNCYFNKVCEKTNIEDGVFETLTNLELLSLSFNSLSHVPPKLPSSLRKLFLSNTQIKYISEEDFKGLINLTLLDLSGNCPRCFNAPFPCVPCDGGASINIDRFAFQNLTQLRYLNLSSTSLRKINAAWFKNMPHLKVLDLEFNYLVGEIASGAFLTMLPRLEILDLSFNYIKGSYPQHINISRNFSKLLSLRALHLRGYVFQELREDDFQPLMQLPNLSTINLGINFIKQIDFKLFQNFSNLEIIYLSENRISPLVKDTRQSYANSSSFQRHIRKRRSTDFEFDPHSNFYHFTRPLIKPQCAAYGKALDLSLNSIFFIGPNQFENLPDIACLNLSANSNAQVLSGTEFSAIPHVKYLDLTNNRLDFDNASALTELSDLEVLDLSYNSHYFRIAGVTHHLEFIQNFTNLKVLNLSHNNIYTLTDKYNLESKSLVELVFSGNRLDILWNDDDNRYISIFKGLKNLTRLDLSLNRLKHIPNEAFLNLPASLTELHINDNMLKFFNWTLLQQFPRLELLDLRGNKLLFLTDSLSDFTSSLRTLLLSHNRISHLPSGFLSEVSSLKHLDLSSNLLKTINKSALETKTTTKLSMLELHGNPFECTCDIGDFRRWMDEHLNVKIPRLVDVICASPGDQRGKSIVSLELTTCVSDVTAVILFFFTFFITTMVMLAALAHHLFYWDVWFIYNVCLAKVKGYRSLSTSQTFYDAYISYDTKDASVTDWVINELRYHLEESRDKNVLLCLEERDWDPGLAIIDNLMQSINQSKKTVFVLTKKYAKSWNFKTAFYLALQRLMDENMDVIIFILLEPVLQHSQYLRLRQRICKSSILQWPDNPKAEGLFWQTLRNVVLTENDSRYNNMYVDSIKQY
Method: TLR7/8/9 Inhibition Reporter Assays
HEK-Blue™-cells (Invivogen) overexpressing human TLR7, TLR8 or TLR9 receptors were used for screening inhibitors of these receptors using an inducible SEAP (secreted embryonic alkaline phosphatase) reporter gene under the control of the IFN-β minimal promoter fused to five NF-κB and AP-1-binding sites. Briefly, cells are seeded into Greiner 384 well plates (15000 cells per well for TLR7, 20,000 for TLR8 and 25,000 for TLR9) and then treated with test compounds in DMSO to yield a final dose response concentration range of 0.05 nM-50 μM. After a 30 minute compound pre-treatment at room temperature, the cells are then stimulated with a TLR7 ligand (gardiquimod at a final concentration of 7.5 μM), TLR8 ligand (R848 at a final concentration of 15.9 μM) or TLR9 ligand (ODN2006 at a final concentration of 5 nM) to activate NF-κB and AP-1 which induce the production of SEAP. After a 22 hour incubation at 37° C., 5% CO2, SEAP levels are determined with the addition of HEK-Blue™ Detection reagent (Invivogen), a cell culture medium that allows for detection of SEAP, according to manufacturer's specifications. The percent inhibition is determined as the % reduction in the HEK-Blue signal present in wells treated with agonist plus DMSO alone compared to wells treated with a known inhibitor.

[3] = target: T3, human TLR9 (Homo sapiens, UniProt Q9NR96); test: TLR9 inhibition reporter assay (HEK-Blue SEAP reporter); conditions: HEK-Blue cells overexpressing human TLR9; ODN2006 5 nM; 22 hour incubation
T3 construct: host or cells: HEK-Blue cells
T3 sequence (Q9NR96 26-1032): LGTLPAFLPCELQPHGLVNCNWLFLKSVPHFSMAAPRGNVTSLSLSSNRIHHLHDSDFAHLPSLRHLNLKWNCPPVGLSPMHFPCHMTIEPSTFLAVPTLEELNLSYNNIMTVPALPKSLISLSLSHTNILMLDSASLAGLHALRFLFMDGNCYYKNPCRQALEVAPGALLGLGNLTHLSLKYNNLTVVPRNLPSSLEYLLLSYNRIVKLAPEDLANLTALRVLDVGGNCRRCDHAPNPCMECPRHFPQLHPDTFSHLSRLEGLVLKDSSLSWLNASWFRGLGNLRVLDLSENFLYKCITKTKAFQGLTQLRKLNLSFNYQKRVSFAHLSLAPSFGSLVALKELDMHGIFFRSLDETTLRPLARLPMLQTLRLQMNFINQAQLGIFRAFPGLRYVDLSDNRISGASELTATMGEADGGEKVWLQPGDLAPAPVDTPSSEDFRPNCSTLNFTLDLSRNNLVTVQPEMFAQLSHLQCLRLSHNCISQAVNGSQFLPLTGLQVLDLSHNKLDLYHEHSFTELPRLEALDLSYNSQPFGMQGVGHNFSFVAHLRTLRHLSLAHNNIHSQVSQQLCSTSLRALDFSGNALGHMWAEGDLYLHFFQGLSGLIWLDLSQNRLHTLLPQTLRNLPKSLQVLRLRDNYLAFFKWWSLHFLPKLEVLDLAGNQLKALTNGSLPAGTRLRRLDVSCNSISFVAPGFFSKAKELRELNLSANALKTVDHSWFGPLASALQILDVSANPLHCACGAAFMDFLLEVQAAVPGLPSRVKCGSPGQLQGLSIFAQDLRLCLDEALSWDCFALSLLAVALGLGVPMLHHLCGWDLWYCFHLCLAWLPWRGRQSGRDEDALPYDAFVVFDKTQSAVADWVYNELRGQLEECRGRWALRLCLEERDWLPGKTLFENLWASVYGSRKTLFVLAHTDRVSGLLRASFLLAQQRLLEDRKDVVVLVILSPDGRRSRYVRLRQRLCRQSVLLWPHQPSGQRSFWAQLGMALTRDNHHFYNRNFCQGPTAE
In short: as §1

Row | IC50 [1] | IC50 [2] | IC50 [3] | Compound
1 | 6.4 nM | 5.8 nM | 597 nM | Cc1cc(-c2[nH]c3ccc(N4CCC(N5CCN(C(C)C)CC5)C4=O)cc3c2C(C)C)cc(C)n1 (single isomer, unassigned) [Example 5, 1-(2-(2,6-dimethylpyridin-4-yl)-3-isopropyl-1H-indol-5-yl)-3-(4-isopropylpiperazin-1-yl) pyrrolidin-2-one]
2 | 3.9 nM | 4.9 nM | 1020 nM | Cc1cc(-c2[nH]c3ccc(N4CCC(N5CCN(C(C)C)CC5)C4=O)cc3c2C(C)C)cc(C)n1 (single isomer, unassigned) [Example 6, 1-(2-(2,6-dimethylpyridin-4-yl)-3-isopropyl-1H-indol-5-yl)-3-(4-isopropylpiperazin-1-yl) pyrrolidin-2-one]
3 | 434 nM | 234 nM | 281 nM | CNCCNC1CCC(Nc2ccc3[nH]c(-c4ccc(OC)c(OC)c4)c(C(C)C)c3c2)CC1 (single isomer, unassigned) [Example 30, N1-(2-(3,4-dimethoxyphenyl)-3-isopropyl-1H-indol-5-yl)-N4-(2-(methylamino)ethyl)cyclohexane-1,4-diamine]
4 | 43 nM | 171 nM | 570 nM | COc1ccc(-c2[nH]c3ccc(NC4CCC(NC5CCN(C)CC5)CC4)cc3c2C(C)C)cc1OC (single isomer, unassigned) [Example 40, N1-(2-(3,4-dimethoxyphenyl)-3-isopropyl-1H-indol-5-yl)-N4-(1-methylpiperidin-4-yl)cyclohexane-1,4-diamine]
5 | 189 nM | 16 nM | 488 nM | CNCCNC1CCN(c2ccc3[nH]c(-c4ccnc(C)c4)c(C(C)C)c3c2)C1=O (stereo not shown) [Example 1, 1-(3-isopropyl-2-(2-methylpyridin-4-yl)-1H-indol-5-yl)-3-((2-(methylamino)ethyl)amino)pyrrolidin-2-one]
6 | 99 nM | 28 nM | 4970 nM | Cc1cc(-c2[nH]c3ccc(N4CCC(N(C)CCN)C4=O)cc3c2C(C)C)ccn1 (stereo not shown) [Example 2, 3-((2-aminoethyl)(methyl)amino)-1-(3-isopropyl-2-(2-methylpyridin-4-yl)-1H-indol-5-yl)pyrrolidin-2-one]
7 | 44 nM | 31 nM | 10800 nM | COc1ccc(-c2[nH]c3ccc(N4CCC(N(C)C)C4=O)cc3c2C(C)C)cc1OC (stereo not shown) [Example 3, 1-(2-(3,4-dimethoxyphenyl)-3-isopropyl-1H-indol-5-yl)-3-(dimethylamino)pyrrolidin-2-one]
8 | 280 nM | 89 nM |  | COc1ccc(-c2[nH]c3ccc(NC(=O)[C@@H](N)CC(N)=O)cc3c2C(C)C)cc1OC [Example 18, (S)-2-amino-N1-(2-(3,4-dimethoxyphenyl)-3-isopropyl-1H-indol-5-yl)succinamide]
9 | 441 nM | 97 nM |  | COc1ccc(-c2[nH]c3ccc(NC(=O)[C@H](N)CC(N)=O)cc3c2C(C)C)cc1OC [Example 19, (R)-2-amino-N1-(2-(3,4-dimethoxyphenyl)-3-isopropyl-1H-indol-5-yl)succinamide]
10 |  | > 50000 nM | 608 nM | COc1ccc(-c2[nH]c3ccc(N4CCC(CCN(C)C)CC4)cc3c2C(C)C)cc1OC [Example 71, 2-(1-(2-(3,4-dimethoxyphenyl)-3-isopropyl-1H-indol-5-yl)piperidin-4-yl)-N,N-dimethylethan-1-amine]
11 |  | > 50000 nM | 451 nM | CCN1CCC(N2CCN(c3ccc4[nH]c(-c5ccc(OC)c(OC)c5)c(C)c4c3)CC2)CC1 [Example 155, 2-(3,4-dimethoxyphenyl)-5-(4-(1-ethylpiperidin-4-yl)piperazin-1-yl)-3-methyl-1H-indole]
12 |  | 47900 nM | 658 nM | CCc1c(-c2ccnc(C)c2)[nH]c2ccc(N3CCC(OC4CCN(C(C)C)CC4)CC3)cc12 [Example 182, 3-ethyl-5-(4-((1-isopropylpiperidin-4-yl)oxy)piperidin-1-yl)-2-(2-methylpyridin-4-yl)-1H-indole]

Reference: patent US11306092B2, “Amino indole compounds useful as TLR inhibitors” (BRISTOL-MYERS SQUIBB COMPANY, priority 2017, dated 2022)
